{
  "source": "paper PMC7393680",
  "about": "(Organic & biomolecular chemistry, 2020)",
  "key": {"BPTF [1]": {"molecular_target": "BPTF", "details": "prior lead inhibitor; cited from earlier work"}, "5FW-BPTF bromodomain": {"molecular_target": "5FW-BPTF bromodomain (Homo sapiens, UniProt Q12830)", "assay": "SPR, 5FW-labeled His9-BPTF on NTA chip, steady-state", "type": "binding"}, "BPTF [2]": {"system": "BPTF", "details": "ITC, cited from earlier work"}, "[3]": {"molecular_target": "5FW-BPTF bromodomain (His9-tagged, 5-fluorotryptophan-labelled)", "assay": "NMR titration"}},
  "note": "Where two headings read alike, the source gives them in different places.",
  "data": [
    {"molecule": "COC(=O)c1cccc(NC(=O)NC2CCN(c3ccnc(Nc4ccc(F)cc4)n3)C2)c1", "note": "(centres unmarked) [AU1]", "values": [
      {"measurement": "Kd", "setting": "BPTF [1]", "result": 2.8, "unit": "µM"}
    ]},
    {"molecule": "CN(C)CCCOc1ccc(-c2cc(NCCCn3cccn3)nc(S(C)(=O)=O)n2)cc1", "note": "[compound 2, TP-238]", "values": [
      {"measurement": "Kd", "setting": "5FW-BPTF bromodomain", "result": "0.25 ± 0.02", "unit": "µM"},
      {"measurement": "fold weaker affinity for BPTF over CECR2", "setting": "BPTF [2]; BPTF vs CECR2", "result": 10, "unit": "fold"},
      {"measurement": "Kd", "setting": "BPTF [2]; read-out: Reported BPTF Kd, unlabeled BPTF, thesgc.org", "result": 0.12, "unit": "µM"}
    ]},
    {"molecule": "Histone variant H2AZ.1 K4ac,K11ac peptide", "values": [
      {"measurement": "Kd", "setting": "[3]", "result": 720, "unit": "µM"}
    ]}
  ]
}
